Experimental data: patent publication US20040047922A1, “Preparation with vascular protective and anti-oxidative effect and use thereof” (priority 2000, published 2004)

What was measured:
[1] = tested on: tryptophane residues in apo B-100 of LDL; assay: Cu(II)-induced loss of tryptophane fluorescence in LDL; assay type: biochemical; details: FIG. 5
Source text: Oxidation of HDL or LDL with Cu(II) goes along with a reduction of the tryptophane residues (Reyftmann et al., 1990, Biochim. Biophys. Acta 1042, pp. 159-167), which can be observed by measuring fluorescence. After adding Cu(II) to an LDL solution, fluorescence initially drops within a few seconds due to quenching effects caused by copper. […] The time before the slower phase changes into the faster phase can be defined as the lag phase, just like with diene conjugation. (Giessauf et.al., 1995, Biochim. Biophys. Acta 1256, pp. 221-232). The faster decline in fluorescence starts about at the same time as the propagation phase of diene conjugation and is most likely based on a reaction of lipid peroxidation products with tryptophane residues. We used this test system, too, to find out whether the accumulation of lemon oil or γ-terpinene in LDL influences the Cu(II)-induced loss of tryptophane fluorescence.

LDL = assay: Cu(II)-induced formation of conjugated dienes in LDL isolated from plasma pre-incubated with the test substance (lag phase); assay type: biochemical; details: FIG. 2
Description: In-vitro LDL oxidation is a common model for testing various substances for their antioxidant properties because they accumulate in the LDL in vitro due to pre-incubation of the plasma with (primarily lipophilic) test substances (McLean und Hagaman, 1989, Biochemistry 28(1); pp. 321-327, Esterbauer et al, 1991b, Am. J. Clin. Nutr. 53, pp. 315S-321S). After accumulation, the influence of these substances on the oxidability of LDL can be studied.
Continuous measurement of the formation of conjugated dienes in LDL is an accepted method of comparing oxidizability of the lipid portion of various LDL samples (Esterbauer et al. 1989, Free Rad. Res. Comms. 6(1), pp. 67-75; Parthasarathy et al. 1998, Free Rad. Res. 28, pp. 583-591). […] The study was to find out whether accumulation of lemon oil or γ-terpinene in LDL can protect the LDL from Cu(II)-induced oxidation.
In another test, blood plasma was incubated with 0.5, 0.25, 0.1 and 0.01% γ-terpinene and the LDL isolated from it was tested for resistance against cooper-induced oxidation.

CC1=CCC(C(C)C)=CC1 [γ-terpinene]
oxidation of tryptophane residues in LDL ([1]; 0.5% of γ-terpinene in the plasma): almost completely prevents | early protein oxidation (loss of tryptophane fluorescence) ([1]; LDL enriched with γ-terpinene): slows down | lag phase of conjugated diene formation (LDL; 0.01% γ-terpinene in the plasma): clearly extended | extension of the lag phase of conjugated diene formation (LDL; 0.1% γ-terpinene in the plasma): about 250 minutes | time without reaching the propagation phase (LDL; higher concentrations in the plasma (0.25 and 0.5% γ-terpinene)): > 500 min | lag phase of conjugated diene formation (LDL; plasma incubated with 0.5, 0.25, 0.1 and 0.01% γ-terpinene, copper-induced oxidation): expands depending on concentration
